Data on three molecules can be found in the NIST ThermoML archive (doi:10.1021/je300633e).

The nature of data set [1]: mn = molality of the nth substance listed, in mol/kg. The following applies: 298.15 K, 101 kPa, Liquid, Vibrating tube method.
The nature of data set [2]: refractive index (Na D-line) (dimensionless); mn = molality of the nth substance listed, in mol/kg. The following applies: 298.15 K, 101 kPa, Liquid, Standard Abbe refractometry.

The term mass density denotes mass per unit of volume. As usually defined, the refractive index is a measure of how strongly the sample bends light.

Each structure is given as a SMILES string. Numbers after ± are expanded uncertainties.

As for `OC[C@@H](O)[C@@H](O)[C@H](O)[C@H](O)CO` [D-mannitol] + O, the mass density is 1003.27 ± 1 kg/m3 in data set [1] (m1 = 0.1); 1009.2 ± 1 kg/m3 in data set [1] (m1 = 0.2); 1015.29 ± 1 kg/m3 in data set [1] (m1 = 0.3); 1026.51 ± 1 kg/m3 in data set [1] (m1 = 0.5); 1037.43 ± 1 kg/m3 in data set [1] (m1 = 0.7); 1047.8 ± 1 kg/m3 in data set [1] (m1 = 0.9). Also, the refractive index in data set [2] (m1 = 0.1) is recorded as 1.3349 ± 0.0009; in data set [2] (m1 = 0.2), 1.3367 ± 0.0009; in data set [2] (m1 = 0.3), 1.3398 ± 0.0009; in data set [2] (m1 = 0.5), 1.344 ± 0.0009; in data set [2] (m1 = 0.7) it was 1.349 ± 0.0009; in data set [2] (m1 = 0.9), 1.3532 ± 0.0009.

Consider `CC(=O)NCCCCCCNC(C)=O` [N,N'-diacetyl-1,6-hexanediamine] + O, for which the mass density in data set [1] (m1 = 0.1) was determined as 997.981 ± 1.1 kg/m3; in data set [1] (m1 = 0.15) it was 998.443 ± 1.1 kg/m3; in data set [1] (m1 = 0.2) it was 998.931 ± 1.1 kg/m3; in data set [1] (m1 = 0.25), 999.413 ± 1.1 kg/m3; in data set [1] (m1 = 0.3), 999.901 ± 1.1 kg/m3; in data set [1] (m1 = 0.35), 1000.37 ± 1.1 kg/m3. In addition, the mass density in data set [1] (m1 = 0.4) stood at 1000.88 ± 1.1 kg/m3. The refractive index came to 1.3348 ± 0.0009 in data set [2] (m1 = 0.1); 1.3363 ± 0.0009 in data set [2] (m1 = 0.15); 1.3382 ± 0.0009 in data set [2] (m1 = 0.2); 1.3393 ± 0.0009 in data set [2] (m1 = 0.25); 1.3409 ± 0.0009 in data set [2] (m1 = 0.3); 1.3419 ± 0.0009 in data set [2] (m1 = 0.35). For the same molecule, the refractive index in data set [2] (m1 = 0.4) is reported as 1.3431 ± 0.0009.

Consider `OC[C@@H](O)[C@H](O)[C@@H](O)CO` [xylitol] + O, for which the mass density in data set [1] (m1 = 0.1) was found to be 1002 ± 1.1 kg/m3; in data set [1] (m1 = 0.2) it was 1006.92 ± 1.1 kg/m3; in data set [1] (m1 = 0.3) it was 1011.76 ± 1.1 kg/m3; in data set [1] (m1 = 0.5) it was 1020.96 ± 1.1 kg/m3; in data set [1] (m1 = 0.7), 1029.87 ± 1.1 kg/m3; in data set [1] (m1 = 0.9), 1038.33 ± 1.1 kg/m3. Also, the refractive index was found to be 1.3341 ± 0.0009 in data set [2] (m1 = 0.1); 1.3361 ± 0.0009 in data set [2] (m1 = 0.2); 1.3382 ± 0.0009 in data set [2] (m1 = 0.3); 1.3423 ± 0.0009 in data set [2] (m1 = 0.5); 1.346 ± 0.0009 in data set [2] (m1 = 0.7); 1.3494 ± 0.0009 in data set [2] (m1 = 0.9).
